pIC50: −log10 of the molar value.

For this test, the target named is Endothelin receptor type B (Sus scrofa). Kind of test: Inhibition of [125I]ET1 binding to porcine kidney inner medulla membrane Endothelin B receptor.
On to `CCCOc1ccc2c(c1)c(-c1ccc(OC)cc1)c(C(=O)O)n2Cc1ccc2nsnc2c1` [1-Benzo[1,2,5]thiadiazol-5-ylmethyl-3-(4-methoxy-phenyl)-5-propoxy-1H-indole-2-carboxylic acid], for which the pIC50 was 5.92.

In turn, `COc1ccc(-c2c(C(=O)O)c(=O)n(Cc3ccc4nsnc4c3)c3c2oc2ccccc23)cc1` [1-Benzo[1,2,5]thiadiazol-5-ylmethyl-4-(4-methoxy-phenyl)-2-oxo-1,2-dihydro-benzo[4,5]furo[3,2-b]pyridine-3-carboxylic acid] showed a pIC50 of 6.52.

`COc1ccc(-c2c(C(=O)O)c(=O)n(Cc3ccc4c(c3)OCO4)c3c2oc2ccccc23)cc1` [1-Benzo[1,3]dioxol-5-ylmethyl-4-(4-methoxy-phenyl)-2-oxo-1,2-dihydro-benzo[4,5]furo[3,2-b]pyridine-3-carboxylic acid] gave a pIC50 of 6.36. This pIC50 and that of the compound before are within 0.2 log units of each other.

Consider `COc1ccc(C2(O)OC(=O)C(c3ccc4nsnc4c3)=C2Cc2cc(OC)c(OC)c(OC)c2)cc1` (configuration not stated) [3-Benzo[1,2,5]thiadiazol-5-yl-5-hydroxy-5-(4-methoxy-phenyl)-4-(3,4,5-trimethoxy-benzyl)-5H-furan-2-one], for which the pIC50 was 6.47.

As to `CCCOc1ccc2c(c1)c(-c1ccc3c(c1)OCO3)c(C(=O)O)n2Cc1ccc2nonc2c1` [3-Benzo[1,3]dioxol-5-yl-1-benzo[1,2,5]oxadiazol-5-ylmethyl-5-propoxy-1H-indole-2-carboxylic acid], the pIC50 is 5.28.

`CCCOc1ccc2c(c1)c(-c1ccc3c(c1)OCO3)c(C(=O)O)n2Cc1ccc2c(c1)OCO2` [3-Benzo[1,3]dioxol-5-yl-1-benzo[1,3]dioxol-5-ylmethyl-5-propoxy-1H-indole-2-carboxylic acid] showed a pIC50 of 5.80.

Regarding `CN(C)c1cccc2c(S(=O)(=O)Nc3ccc4c(c3)OCO4)cccc12` [5-Dimethylamino-naphthalene-1-sulfonic acid benzo[1,3]dioxol-5-ylamide], the pIC50 was less than 5.00.

For the origin of these results see BindingDB's records for doi:10.1016/s0960-894x(97)10151-2 (Merck, 1999).
